From patent publication US5521175A, “Benzodiazepine derivatives” (Merck Sharp & Dohme Ltd., priority 1992, dated 1996) come the findings set out here.

Structures can show the parent of a compound that is named as a salt. Where two headings read alike, the source gives them in different places.

The target in one assay is T1, CCK-B receptor (Cavia porcellus, UniProt H0VZC5).
T1 construct: guinoa pig brain (CCK-B); from tissue; host or cells: guinea pig brain
T1 sequence (H0VZC5 1-426): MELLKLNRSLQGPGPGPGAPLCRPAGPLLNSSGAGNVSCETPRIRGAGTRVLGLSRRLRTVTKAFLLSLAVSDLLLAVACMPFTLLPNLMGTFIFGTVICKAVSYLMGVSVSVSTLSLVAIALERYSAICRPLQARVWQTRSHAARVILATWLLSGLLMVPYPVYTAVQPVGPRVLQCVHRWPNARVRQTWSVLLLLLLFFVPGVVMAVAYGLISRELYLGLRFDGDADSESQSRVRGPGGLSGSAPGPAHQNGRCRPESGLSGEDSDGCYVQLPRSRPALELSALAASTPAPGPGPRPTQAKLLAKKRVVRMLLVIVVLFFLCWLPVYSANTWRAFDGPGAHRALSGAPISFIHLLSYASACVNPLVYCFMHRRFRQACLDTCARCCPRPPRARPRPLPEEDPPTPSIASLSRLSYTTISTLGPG
Kind of assay: displacement of ^125 I-CCK from guinea pig brain (CCK-B receptor binding). The conditions noted are these: guinoa pig brain (CCK-B).

Another assay has as its target T2, CCK-A receptor (Rattus norvegicus, UniProt P30551).
T2 sequence (P30551 1-444): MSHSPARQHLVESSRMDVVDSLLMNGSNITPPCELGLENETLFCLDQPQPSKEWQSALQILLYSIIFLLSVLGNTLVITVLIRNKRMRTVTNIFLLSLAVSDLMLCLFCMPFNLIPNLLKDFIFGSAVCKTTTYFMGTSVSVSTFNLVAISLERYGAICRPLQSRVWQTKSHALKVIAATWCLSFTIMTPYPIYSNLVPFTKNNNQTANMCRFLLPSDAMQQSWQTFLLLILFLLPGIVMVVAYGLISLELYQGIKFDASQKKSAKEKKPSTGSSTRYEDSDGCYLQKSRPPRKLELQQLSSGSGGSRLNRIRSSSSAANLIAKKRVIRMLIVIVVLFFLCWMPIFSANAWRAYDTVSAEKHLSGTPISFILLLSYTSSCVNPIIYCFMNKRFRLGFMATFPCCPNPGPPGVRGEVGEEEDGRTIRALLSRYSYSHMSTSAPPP
The assay is described as follows: displacement of ^125 I-CCK from rat pancreas (CCK-A receptor binding).

The mark [1] stands for this setting: read-out: CCK receptor binding IC50, ^125 I-CCK Brain.
Where [2] appears, read: ^125 I-CCK, rat pancreas (CCK-A), read-out: CCK receptor binding IC50, ^125 I-CCK Pancreas.

For orientation: IC50 means the concentration that inhibits the measured activity by half.

Description for CCK-A receptor: (§1) The CCK-A and CCK-B antagonising activity of the compounds described herein was evaluated using the assays described in published European patent application no. […] The method essentially involves determining the concentration of the test compound required to displace 50% of the specific ^125 I--CCK from rat pancreas (CCK-A) or guinoa pig brain (CCK-B).
Description for CCK-B receptor: as §1

In turn, `CCCN1C(=O)C(NC(=O)Nc2cccc(C)c2)N=C(C2CCCCN2C)c2ccccc21` (single isomer, unassigned) [Example 3, N-[2,3-Dihydro-5-(1-methylpiperidin-2-yl)-2-oxo-1-(1propyl)-1H-1,4-benzodiazepin-3-yl]-N'-[3-methylphenyl]urea hydrochloride] showed an IC50 on CCK-B receptor (CCK receptor binding IC50, ^125 I-CCK Brain) of 53.6 nM. As to `CN1C(=O)C(NC(=O)Nc2ccc3c(c2)CCC3)N=C(C2CCC(C)(C)CCN2)c2ccccc21` (single isomer, unassigned) [Example 7, N-[2,3-Dihydro-5-(5,5-dimethyl-2,3,4,5,6-hexahydro-1H-azepin-2-yl)-1-methyl-2-oxo-1H-1,4-benzodiazepin-3-yl]-N'-[5-indanyl]urea hydrochloride], the IC50 came out at 2.37 nM at CCK-B receptor (setting [1]) and 6490 nM on CCK-A receptor (setting [2]).

Consider `CCCN1C(=O)C(NC(=O)Nc2cccc(C)c2)N=C(C2CCCCN2)c2ccccc21` (single isomer, unassigned) [Example 1, N-[2,3-Dihydro-2-oxo-5-(piperidin-2-yl)-1-(1-propyl)-1H-1,4-benzodiazepin-3-yl]-N'-[3-methylphenyl]urea hydrochloride], for which the results for the IC50 at CCK-B receptor (setting [1]) and at CCK-A receptor (setting [2]) were 41.8 nM and above 3000 nM, respectively.

For `Cc1cccc(NC(=O)NC2N=C(C3CCNCC3)c3ccccc3N(CC(C)C)C2=O)c1` (centres unmarked) [Example 9, N-[2,3-Dihydro-1-(2-methylpropyl)-2-oxo-5-(piperidin-4-yl)-1H-1,4-benzodiazepin-3-yl]-N'-[3-methylpheny]urea trifluoroacetic acid salt], the IC50 at CCK-B receptor (setting [1]) amounted to 290 nM; at CCK-A receptor (setting [2]) it was 2670 nM. Regarding `Cc1cccc(NC(=O)NC2N=C(C3CCC(C)(C)CCN3)c3ccccc3N(C)C2=O)c1` (single isomer, unassigned) [Example 6, N-[2,3-Dihydro-5-(5,5-dimethyl-2,3,4,5,6-hexahydro-1H-azepin-2-yl)-1-methyl-2-oxo-1H-1,4-benzodiazepin-3-yl]-N'-[3-methylphenyl]urea hydrochloride], on CCK-B receptor (setting [1]), the IC50 stood at 12 nM. Same read-out and setting: the result for `CCCN1C(=O)C(NC(=O)Nc2cccc(C)c2)N=C(C2CCC(C)(C)CCN2C)c2ccccc21` (single isomer, unassigned) [Example 5, N-[2,3-Dihydro-5-(2,3,4,5,6-hexahydro-1,5,5,-trimethyl-1H-azepin-2-yl)-2-oxo-1-(1-propyl)-1H-1,4-benzodiazepin-3-yl]-N'-[3-methylphenyl]urea hydrochloride] reads 25.5 nM. In turn, `CCCN1C(=O)C(NC(=O)Nc2ccc3c(c2)CCC3)N=C(C2CC(C)(C)CCN2)c2ccccc21` (single isomer, unassigned) [Example 12, N-[2,3-Dihydro-5-(4,4-dimethylpiperidin-2-yl)-2-oxo-1-(1-propyl)-1H, 1,4-benzodiazepin-3-yl-N'-[5-indanyl]urea hydrochloride] had an IC50 at CCK-A receptor of 3220 nM. Regarding `Cc1cccc(NC(=O)NC2N=C(C3CCN(C)CC3)c3ccccc3N(CC(C)C)C2=O)c1` (centres unmarked) [Example 10, N-[2,3-Dihydro-5-(N-methylpiperidin-4-yl)-1-(2-methylpropyl)-2-oxo-1H-1,4-benzodiazepin-3-yl]-N'-[3-methylphenyl]urea hydrochloric acid salt], the IC50 at CCK-B receptor (setting [1]) was found to be 240 nM; at CCK-A receptor (setting [2]), 2930 nM. As to `CCCN1C(=O)C(NC(=O)Nc2cccc(C)c2)N=C(C2CCCCN2)c2ccccc21` (single isomer, unassigned) [Example 2, N-[2,3-Dihydro-2-oxo-5-(piperidin-2-yl)-1-(1-propyl)-1H-1,4,benzodiazepin-3-yl]-N'-[3-methylphenylurea hydrochloride], the IC50 is 36.4 nM on CCK-B receptor (setting [1]) and above 3000 nM on CCK-A receptor (setting [2]). Turning to `CCCN1C(=O)C(NC(=O)Nc2cccc(C)c2)N=C(C2CC(C)(C)CCN2)c2ccccc21` (single isomer, unassigned) [Example 8, N-[2,3-Dihydro-5-(4,4-dimethylpiperidin-2-yl)-2-oxo-1-(1-propyl)-1H-1,4-benzodiazepin-3-yl]-N'-[3-methylphenyl]urea hydrochloride], the IC50 on CCK-B receptor (setting [1]) is 1.47 nM. For the compound `CC(C)CN1C(=O)C(NC(=O)Nc2cccc(-c3nnn[nH]3)c2)N=C(C2CCNCC2)c2ccccc21` (centres unmarked) [Example 11, N-[2,3-Dihydro-1-(2-methylpropyl)-2-oxo-5-(piperidin-4-yl)-1H-1,4-benzodiazepin-3-yl]-N'-[3-(tetrazol-5-yl)phenyl]urea, trifluoroacetic acid salt], the concentration for half-maximal inhibition (IC50) at CCK-B receptor (setting [1]) is 55 nM; on CCK-A receptor (setting [2]), above 3000 nM.
